Test results published in the kinase profiling compilation of Christmann-Franck et al. (2016).

What was measured:
Assay in all cases: radiometric filter-binding kinase assay, Kinase HotSpot
Settings in all cases: compound 0.5 µM; ATP 10 µM
[1] = target: NUAK1 (human) (UniProt O60285)
[2] = target: NEK6 (human) (UniProt Q9HC98)
[3] = target: ACVR1B (human) (UniProt P36896)
[4] = target: OXSR1 (human) (UniProt O95747)
[5] = target: CDK1 CCNA2 (human) (UniProt P06493+P20248)
[6] = target: MYLK (human) (UniProt Q15746)
[7] = target: CDK6 CCND1 (human) (UniProt Q00534+P24385)
[8] = target: CSNK1E (human) (UniProt P49674)
[9] = target: MAP2K1 (human) (UniProt Q02750)
[10] = target: ZAP70 (human) (UniProt P43403)
[11] = target: STK33 (human) (UniProt Q9BYT3)
[12] = target: DAPK1 (human) (UniProt P53355)
[13] = target: CHUK (human) (UniProt O15111)
[14] = target: MAPK10 (human) (UniProt P53779)
[15] = target: ERBB4 (human) (UniProt Q15303)
[16] = target: DDR2 (human) (UniProt Q16832)
[17] = target: WNK2 (human) (UniProt Q9Y3S1)
[18] = target: JAK2 JH1 JH2 (human) (UniProt O60674)
[19] = target: MARK2 (human) (UniProt Q7KZI7)
[20] = target: PKN2 (human) (UniProt Q16513)
[21] = target: PASK (human) (UniProt Q96RG2)
[22] = target: MAP3K11 (human) (UniProt Q16584)
[23] = target: TYK2 JH1 catalytic (human) (UniProt P29597)
[24] = target: MAP3K14 (human) (UniProt Q99558)
[25] = target: PTK2B (human) (UniProt Q14289)
[26] = target: AURKB (human) (UniProt Q96GD4)
[27] = target: LCK (human) (UniProt P06239)
[28] = target: CSNK2A2 (human) (UniProt P19784)
[29] = target: FGFR1 (human) (UniProt P11362)
[30] = target: PRKCZ (human) (UniProt Q05513)
[31] = target: PRKCB2 (human) (UniProt P05771)
[32] = target: CAMK1D (human) (UniProt Q8IU85)
[33] = target: CLK2 (human) (UniProt P49760)
[34] = target: ROCK2 (human) (UniProt O75116)
[35] = target: FGFR2 (human) (UniProt P21802)
[36] = target: PLK1 (human) (UniProt P53350)
[37] = target: RPS6KA3 KD1 KD2 (human) (UniProt P51812)
[38] = target: GRK7 (human) (UniProt Q8WTQ7)
[39] = target: ERBB2 (human) (UniProt P04626)
Chain of ERBB2 (human) (P04626 whole entry, looked up): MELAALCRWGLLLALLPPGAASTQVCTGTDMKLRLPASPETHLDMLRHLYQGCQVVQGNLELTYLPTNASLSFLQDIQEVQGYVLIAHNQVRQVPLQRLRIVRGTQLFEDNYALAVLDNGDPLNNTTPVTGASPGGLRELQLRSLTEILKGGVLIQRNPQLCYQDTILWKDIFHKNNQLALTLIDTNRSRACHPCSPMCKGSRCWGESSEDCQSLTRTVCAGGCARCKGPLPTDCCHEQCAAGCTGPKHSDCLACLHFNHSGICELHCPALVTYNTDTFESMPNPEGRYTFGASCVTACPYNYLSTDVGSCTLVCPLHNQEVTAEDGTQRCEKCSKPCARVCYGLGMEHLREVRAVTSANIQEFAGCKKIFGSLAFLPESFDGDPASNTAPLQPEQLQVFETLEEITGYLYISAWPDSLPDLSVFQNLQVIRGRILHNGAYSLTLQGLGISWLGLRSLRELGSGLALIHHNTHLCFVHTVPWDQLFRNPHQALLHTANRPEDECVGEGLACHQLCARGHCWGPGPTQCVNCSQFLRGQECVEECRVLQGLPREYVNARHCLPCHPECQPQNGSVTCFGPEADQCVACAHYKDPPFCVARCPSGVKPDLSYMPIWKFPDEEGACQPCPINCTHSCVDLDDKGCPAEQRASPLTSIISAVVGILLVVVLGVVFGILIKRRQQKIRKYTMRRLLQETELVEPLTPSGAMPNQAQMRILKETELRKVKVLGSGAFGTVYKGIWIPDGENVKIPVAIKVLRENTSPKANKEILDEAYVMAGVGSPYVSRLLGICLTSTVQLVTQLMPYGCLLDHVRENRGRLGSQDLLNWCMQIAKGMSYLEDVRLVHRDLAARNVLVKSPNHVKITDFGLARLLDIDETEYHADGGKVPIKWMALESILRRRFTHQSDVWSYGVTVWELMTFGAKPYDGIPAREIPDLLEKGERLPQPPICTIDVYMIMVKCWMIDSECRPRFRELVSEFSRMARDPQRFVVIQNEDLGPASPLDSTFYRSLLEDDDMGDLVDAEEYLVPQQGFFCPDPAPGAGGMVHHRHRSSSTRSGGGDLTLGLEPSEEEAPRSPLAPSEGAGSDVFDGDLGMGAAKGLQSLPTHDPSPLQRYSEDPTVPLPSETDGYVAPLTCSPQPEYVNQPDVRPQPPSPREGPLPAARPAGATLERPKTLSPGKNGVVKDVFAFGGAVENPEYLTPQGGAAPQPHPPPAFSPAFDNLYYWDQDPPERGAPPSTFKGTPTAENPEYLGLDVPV

Chain of TYK2 JH1 catalytic (human) (P29597 whole entry, looked up): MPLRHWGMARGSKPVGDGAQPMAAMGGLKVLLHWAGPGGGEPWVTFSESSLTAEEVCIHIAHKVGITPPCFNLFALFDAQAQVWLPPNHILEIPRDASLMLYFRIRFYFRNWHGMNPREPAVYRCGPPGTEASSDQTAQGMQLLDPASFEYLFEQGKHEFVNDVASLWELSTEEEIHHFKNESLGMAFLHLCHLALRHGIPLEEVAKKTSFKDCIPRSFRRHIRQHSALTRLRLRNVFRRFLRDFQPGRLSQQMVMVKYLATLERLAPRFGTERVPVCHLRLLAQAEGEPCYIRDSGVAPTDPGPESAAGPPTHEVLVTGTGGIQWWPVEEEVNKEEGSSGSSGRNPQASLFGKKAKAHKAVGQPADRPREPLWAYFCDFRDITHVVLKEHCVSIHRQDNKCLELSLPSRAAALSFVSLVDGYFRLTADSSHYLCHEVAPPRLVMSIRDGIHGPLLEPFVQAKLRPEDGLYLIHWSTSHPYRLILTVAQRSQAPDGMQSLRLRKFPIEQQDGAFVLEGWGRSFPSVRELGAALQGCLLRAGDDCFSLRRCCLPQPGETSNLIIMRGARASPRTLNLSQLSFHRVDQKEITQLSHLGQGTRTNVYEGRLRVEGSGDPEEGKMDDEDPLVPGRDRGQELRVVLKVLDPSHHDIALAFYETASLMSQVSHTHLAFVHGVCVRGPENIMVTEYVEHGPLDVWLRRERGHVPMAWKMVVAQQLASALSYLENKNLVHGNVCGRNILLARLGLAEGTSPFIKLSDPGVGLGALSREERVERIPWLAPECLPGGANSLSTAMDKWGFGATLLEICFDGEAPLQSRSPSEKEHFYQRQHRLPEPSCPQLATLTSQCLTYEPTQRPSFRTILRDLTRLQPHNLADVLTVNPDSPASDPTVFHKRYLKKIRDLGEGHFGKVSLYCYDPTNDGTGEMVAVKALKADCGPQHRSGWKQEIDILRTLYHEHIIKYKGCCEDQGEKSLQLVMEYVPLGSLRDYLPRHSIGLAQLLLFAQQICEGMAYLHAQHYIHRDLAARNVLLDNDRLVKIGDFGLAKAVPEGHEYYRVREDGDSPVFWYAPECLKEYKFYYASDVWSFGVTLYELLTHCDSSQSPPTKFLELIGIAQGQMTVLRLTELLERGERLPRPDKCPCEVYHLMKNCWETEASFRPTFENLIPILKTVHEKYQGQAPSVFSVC
Chain of PTK2B (human) (Q14289 whole entry, looked up): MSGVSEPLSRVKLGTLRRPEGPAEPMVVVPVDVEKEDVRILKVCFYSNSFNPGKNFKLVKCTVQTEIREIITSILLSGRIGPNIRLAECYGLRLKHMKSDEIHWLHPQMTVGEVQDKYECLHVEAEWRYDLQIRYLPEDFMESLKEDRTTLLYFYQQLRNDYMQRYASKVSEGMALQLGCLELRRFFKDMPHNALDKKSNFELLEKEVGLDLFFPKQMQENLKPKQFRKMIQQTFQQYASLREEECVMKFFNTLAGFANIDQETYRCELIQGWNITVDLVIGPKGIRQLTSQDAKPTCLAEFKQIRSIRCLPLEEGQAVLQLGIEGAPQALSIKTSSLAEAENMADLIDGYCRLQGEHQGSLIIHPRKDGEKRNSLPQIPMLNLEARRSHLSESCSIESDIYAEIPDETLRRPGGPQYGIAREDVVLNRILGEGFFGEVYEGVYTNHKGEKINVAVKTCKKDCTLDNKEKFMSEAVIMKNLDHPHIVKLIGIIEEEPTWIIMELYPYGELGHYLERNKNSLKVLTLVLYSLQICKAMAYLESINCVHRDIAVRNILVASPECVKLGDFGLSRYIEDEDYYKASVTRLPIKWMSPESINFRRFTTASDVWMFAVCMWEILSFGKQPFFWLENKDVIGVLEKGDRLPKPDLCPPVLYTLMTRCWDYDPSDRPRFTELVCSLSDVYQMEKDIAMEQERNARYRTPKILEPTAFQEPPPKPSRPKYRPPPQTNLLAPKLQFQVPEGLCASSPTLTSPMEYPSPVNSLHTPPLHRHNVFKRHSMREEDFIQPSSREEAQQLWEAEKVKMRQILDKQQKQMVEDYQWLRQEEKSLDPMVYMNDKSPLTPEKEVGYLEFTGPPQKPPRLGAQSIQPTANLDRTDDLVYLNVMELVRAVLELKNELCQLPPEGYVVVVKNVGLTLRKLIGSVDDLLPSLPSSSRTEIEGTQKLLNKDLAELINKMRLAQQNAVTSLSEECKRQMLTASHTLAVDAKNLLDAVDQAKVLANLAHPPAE
Chain of CSNK2A2 (human) (P19784 whole entry, looked up): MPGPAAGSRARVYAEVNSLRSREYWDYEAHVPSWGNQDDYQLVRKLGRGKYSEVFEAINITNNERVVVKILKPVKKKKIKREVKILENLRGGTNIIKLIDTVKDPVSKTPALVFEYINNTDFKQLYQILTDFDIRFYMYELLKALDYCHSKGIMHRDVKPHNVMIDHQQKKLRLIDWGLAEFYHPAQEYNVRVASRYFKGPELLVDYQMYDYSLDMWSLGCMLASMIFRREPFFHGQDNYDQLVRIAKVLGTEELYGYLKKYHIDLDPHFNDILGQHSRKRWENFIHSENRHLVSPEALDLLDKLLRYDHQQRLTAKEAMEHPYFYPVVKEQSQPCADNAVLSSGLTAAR
Chain of PRKCB2 (human) (P05771 whole entry, looked up): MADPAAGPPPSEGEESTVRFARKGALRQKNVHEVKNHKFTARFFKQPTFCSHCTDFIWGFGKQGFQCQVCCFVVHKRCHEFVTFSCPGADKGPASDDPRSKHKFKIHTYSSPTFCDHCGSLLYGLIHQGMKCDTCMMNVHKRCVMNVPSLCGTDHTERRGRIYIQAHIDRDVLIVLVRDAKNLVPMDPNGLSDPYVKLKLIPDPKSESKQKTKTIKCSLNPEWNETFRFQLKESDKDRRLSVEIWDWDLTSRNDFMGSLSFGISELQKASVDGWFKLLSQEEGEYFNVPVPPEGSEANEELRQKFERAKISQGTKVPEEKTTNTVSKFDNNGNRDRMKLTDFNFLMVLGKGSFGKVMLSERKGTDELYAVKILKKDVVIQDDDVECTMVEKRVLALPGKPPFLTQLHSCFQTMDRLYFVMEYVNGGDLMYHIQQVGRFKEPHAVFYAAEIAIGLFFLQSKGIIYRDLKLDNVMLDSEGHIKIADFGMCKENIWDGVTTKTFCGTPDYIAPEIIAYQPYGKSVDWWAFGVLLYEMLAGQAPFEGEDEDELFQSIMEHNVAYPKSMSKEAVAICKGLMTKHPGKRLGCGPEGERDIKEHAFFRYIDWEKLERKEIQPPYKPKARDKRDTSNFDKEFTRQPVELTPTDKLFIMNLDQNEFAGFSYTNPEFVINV
Chain of PLK1 (human) (P53350 whole entry, looked up): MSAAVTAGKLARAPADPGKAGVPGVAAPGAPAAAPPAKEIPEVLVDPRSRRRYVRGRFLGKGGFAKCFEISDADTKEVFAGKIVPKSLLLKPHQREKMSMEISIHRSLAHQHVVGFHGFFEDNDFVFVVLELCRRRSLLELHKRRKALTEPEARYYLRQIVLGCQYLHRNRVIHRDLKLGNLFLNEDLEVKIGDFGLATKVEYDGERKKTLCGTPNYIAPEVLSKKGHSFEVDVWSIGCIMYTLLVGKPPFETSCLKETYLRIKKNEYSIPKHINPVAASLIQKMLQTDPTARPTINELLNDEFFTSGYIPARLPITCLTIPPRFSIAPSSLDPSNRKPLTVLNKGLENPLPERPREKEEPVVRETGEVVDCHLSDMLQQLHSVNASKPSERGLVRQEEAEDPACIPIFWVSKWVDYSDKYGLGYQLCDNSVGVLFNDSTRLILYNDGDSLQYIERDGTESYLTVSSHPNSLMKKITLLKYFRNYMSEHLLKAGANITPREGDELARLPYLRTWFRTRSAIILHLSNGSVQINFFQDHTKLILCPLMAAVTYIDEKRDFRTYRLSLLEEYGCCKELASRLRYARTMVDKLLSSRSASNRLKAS

SMILES	residual activity [1]	residual activity [2]	residual activity [3]	residual activity [4]	residual activity [5]	residual activity [6]	residual activity [7]	residual activity [8]	residual activity [9]	residual activity [10]	residual activity [11]	residual activity [12]	residual activity [13]	residual activity [14]	residual activity [15]	residual activity [16]	residual activity [17]	residual activity [18]	residual activity [19]	residual activity [20]	other results
CO[C@H]1CC2CC[C@@H](C)[C@@](O)(O2)C(=O)C(=O)N2CCCC[C@H]2C(=O)OC([C@H](C)C[C@@H]2CC[C@@H](O)[C@H](OC)C2)CC(=O)[C@H](C)/C=C(\C)[C@@H](O)[C@@H](OC)C(=O)[C@H](C)C[C@H](C)/C=C/C=C/C=C/1C (some centres not stated)	101%	97.7%	97.6%	96.6%	91.9%	102%	99.8%	102%	92.1%	99.2%	105%	88.5%	110%	95.9%	88.7%	95.6%	103%	97.5%	104%	89.8%	residual activity [21]: 101%; residual activity [22]: 98.5%; residual activity [23]: 107%; residual activity [24]: 105%; residual activity [25]: 94.2%; residual activity [26]: 95.2%; residual activity [27]: 99.4%; residual activity [28]: 94.2%; residual activity [29]: 89.4%; residual activity [30]: 105%; residual activity [31]: 89.1%; residual activity [32]: 105%; residual activity [33]: 102%; residual activity [34]: 108%; residual activity [35]: 110%; residual activity [36]: 97.8%; residual activity [37]: 105%; residual activity [38]: 98%; residual activity [39]: 97.3%
COc1ccc2c(c[n+](C)c3c4cc5c(cc4ccc23)OCO5)c1OC	96.6%	104%	110%	94.8%	89.7%	100%	103%	90.7%	97.8%	101%	102%	86.7%	97.5%	100%	99.9%	96.1%	98.5%	102%	95%	93.3%	residual activity [21]: 91.1%; residual activity [22]: 95%; residual activity [23]: 108%; residual activity [24]: 88.1%; residual activity [25]: 92.3%; residual activity [26]: 99.2%; residual activity [27]: 89%; residual activity [28]: 89.7%; residual activity [29]: 96%; residual activity [30]: 97.7%; residual activity [31]: 100%; residual activity [32]: 105%; residual activity [33]: 90.6%; residual activity [34]: 92.5%; residual activity [35]: 101%; residual activity [36]: 93.6%; residual activity [37]: 94.6%; residual activity [38]: 101%; residual activity [39]: 101%
Nc1ccc2ncnc(NCCc3ccc(Oc4ccccc4)cc3)c2c1	94.7%	103%	101%	101%	98.9%	98.5%	101%	148%	107%	93.2%	101%	110%	101%	104%	70.2%	96.8%	96.7%	103%	84.9%	89.7%	residual activity [21]: 103%; residual activity [22]: 103%; residual activity [23]: 99.9%; residual activity [24]: 109%; residual activity [25]: 95%; residual activity [26]: 99.1%; residual activity [27]: 98.3%; residual activity [28]: 103%; residual activity [29]: 86.3%; residual activity [30]: 96%; residual activity [31]: 104%; residual activity [32]: 102%; residual activity [33]: 83%; residual activity [34]: 90.7%; residual activity [35]: 95.5%; residual activity [36]: 91.1%; residual activity [37]: 101%; residual activity [38]: 104%; residual activity [39]: 108%
